Each compound was assayed against Cyclopropane-fatty-acyl-phospholipid synthase (Escherichia coli) (UniProt P0A9H7) (assay: Inhibition constant against Escherichia coli cyclopropane fatty acid synthase).
Cyclopropane-fatty-acyl-phospholipid synthase (Escherichia coli), sequence (P0A9H7 whole entry, looked up): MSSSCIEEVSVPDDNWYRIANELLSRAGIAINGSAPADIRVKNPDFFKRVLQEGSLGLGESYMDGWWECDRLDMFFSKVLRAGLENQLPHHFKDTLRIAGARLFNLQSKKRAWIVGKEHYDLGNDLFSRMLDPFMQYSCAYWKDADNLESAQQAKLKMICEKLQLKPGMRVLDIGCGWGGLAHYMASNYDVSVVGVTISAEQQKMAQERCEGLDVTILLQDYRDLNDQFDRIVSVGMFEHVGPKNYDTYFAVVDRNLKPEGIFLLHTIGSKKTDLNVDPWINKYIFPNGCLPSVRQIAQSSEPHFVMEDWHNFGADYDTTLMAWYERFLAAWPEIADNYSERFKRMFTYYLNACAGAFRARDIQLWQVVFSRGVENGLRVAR

Q: `Nc1ncnc2c1ncn2[C@@H]1O[C@H](C[S+]([O-])CC[C@H](N)C(=O)O)[C@@H](O)[C@H]1O` (stereo partly drawn) [2-Amino-4-[(2S,3S,4R,5R)-5-(6-amino-purin-9-yl)-3,4-dihydroxy-tetrahydro-furan-2-ylmethanesulfinyl]-butyric acid] was tested. Which Ki did it give?
A: 30 µM

Biological target: Cyclopropane-fatty-acyl-phospholipid synthase (Escherichia coli) (UniProt P0A9H7)
Experiment: as above
Remark: another data set of the same source

Q: For `C[S+]([O-])C[C@H]1O[C@@H](n2cnc3c(N)ncnc32)[C@H](O)[C@@H]1O` (stereo partly drawn) [(2R,3R,4S,5S)-2-(6-Amino-purin-9-yl)-5-methanesulfinylmethyl-tetrahydro-furan-3,4-diol], which Ki is on record?
A: 500 µM

Q: `CSC[C@H]1O[C@@H](n2cnc3c(N)ncnc32)[C@H](O)[C@@H]1O` [(2R,3R,4S,5S)-2-(6-aminopurin-9-yl)-5-(methylsulfanylmethyl)oxolane-3,4-diol] was tested. Which Ki did it give?
A: 1500 µM

Q: With `CS(=O)(=O)C[C@H]1O[C@@H](n2cnc3c(N)ncnc32)[C@H](O)[C@@H]1O` [(2R,3R,4S,5S)-2-(6-Amino-purin-9-yl)-5-methanesulfonylmethyl-tetrahydro-furan-3,4-diol] as the compound, how does the Ki read?
A: 220 µM

Q: Which Ki does the source give for `C[S+](C)C[C@H]1O[C@@H](n2cnc3c(N)ncnc32)[C@H](O)[C@@H]1O` here?
A: 2500 µM

Q: For `Nc1ncnc2c1ncn2[C@@H]1O[C@H](C[S+]([O-])CC[C@H](N)C(=O)O)[C@@H](O)[C@H]1O` (stereo partly drawn) [2-Amino-4-[(2S,3S,4R,5R)-5-(6-amino-purin-9-yl)-3,4-dihydroxy-tetrahydro-furan-2-ylmethanesulfinyl]-butyric acid], which Ki is on record?
A: 50 µM

Q: `Nc1ncnc2c1ncn2[C@@H]1O[C@H](CSCC[C@H](N)C(=O)O)[C@@H](O)[C@H]1O` [AdoHcy] was tested. Which Ki did it give?
A: 150 µM

Q: How did the Ki turn out when `Nc1ncnc2c1ncn2[C@@H]1O[C@H](CSCCC(N)C(=O)O)[C@@H](O)[C@H]1O` (stereo partly drawn) [2-Amino-4-[(2S,3S,4R,5R)-5-(6-amino-purin-9-yl)-3,4-dihydroxy-tetrahydro-furan-2-ylmethylsulfanyl]-butyric acid] was run?
A: 30 µM

Q: How did the Ki turn out when `Nc1ncnc2c1ncn2[C@@H]1O[C@H](CS(=O)(=O)CC[C@H](N)C(=O)O)[C@@H](O)[C@H]1O` [2-Amino-4-[(2S,3S,4R,5R)-5-(6-amino-purin-9-yl)-3,4-dihydroxy-tetrahydro-furan-2-ylmethanesulfonyl]-butyric acid] was run?
A: 100 µM
